From the supplement of paper PMC13380429
Structures can show the parent of a compound that is named as a salt.

How the values were obtained:
Conditions in all cases: 72 h
Caco-2 [1] = test: cell viability relative to DMSO; higher = less toxic
Calu-3 [2] = test: as above
HepG2 [3] = test: as above
U2OS [4] = test: as above
Vero E6 [5] = test: as above
Caco-2 [6] = test: relative viability EC50 (midpoint between 100% and the lowest measured viability); higher = less toxic
Calu-3 [7] = test: as above
HepG2 [8] = test: as above
U2OS [9] = test: as above
Vero E6 [10] = test: as above
Caco-2 [11] = test: drug sensitivity score (DSS) for viability; higher = more toxic; extreme values may be limits of the assay
Calu-3 [12] = test: as above
HepG2 [13] = test: as above
U2OS [14] = test: as above
Vero E6 [15] = test: as above

| SMILES | cell viability (Caco-2 [1]; 1 nM) | cell viability (Caco-2 [1]; 10 nM) | cell viability (Caco-2 [1]; 100 nM) | cell viability (Caco-2 [1]; 1000 nM) | cell viability (Caco-2 [1]; 10000 nM) | cell viability (Calu-3 [2]; 1 nM) | cell viability (Calu-3 [2]; 10 nM) | cell viability (Calu-3 [2]; 100 nM) | cell viability (Calu-3 [2]; 1000 nM) | cell viability (Calu-3 [2]; 10000 nM) | cell viability (HepG2 [3]; 1 nM) | cell viability (HepG2 [3]; 10 nM) | cell viability (HepG2 [3]; 100 nM) | cell viability (HepG2 [3]; 1000 nM) | cell viability (HepG2 [3]; 10000 nM) | cell viability (U2OS [4]; 1 nM) | cell viability (U2OS [4]; 10 nM) | cell viability (U2OS [4]; 100 nM) | cell viability (U2OS [4]; 1000 nM) | cell viability (U2OS [4]; 10000 nM) | cell viability (Vero E6 [5]; 1 nM) | cell viability (Vero E6 [5]; 10 nM) | cell viability (Vero E6 [5]; 100 nM) | cell viability (Vero E6 [5]; 1000 nM) | cell viability (Vero E6 [5]; 10000 nM) | relative viability EC50 (Caco-2 [6]) | relative viability EC50 (Calu-3 [7]) | relative viability EC50 (HepG2 [8]) | relative viability EC50 (U2OS [9]) | relative viability EC50 (Vero E6 [10]) | drug sensitivity score (Caco-2 [11]) | drug sensitivity score (Calu-3 [12]) | drug sensitivity score (HepG2 [13]) | drug sensitivity score (U2OS [14]) | drug sensitivity score (Vero E6 [15]) |
| --- | --- | --- | --- | --- | --- | --- | --- | --- | --- | --- | --- | --- | --- | --- | --- | --- | --- | --- | --- | --- | --- | --- | --- | --- | --- | --- | --- | --- | --- | --- | --- | --- | --- | --- | --- |
| C[C@H](NCc1ccc(OCc2cccc(F)c2)cc1)C(N)=O [safinamide] | 97.9% | 97.4% | 101% | 102% | 100% | 95% | 101% | 92.2% | 102% | 108% | 98.1% | 92.5% | 98.4% | 93.4% | 96.6% | 94.2% | 102% | 99% | 105% | 108% | 101% | 89.8% | 99.5% | 97.2% | 100% | > 10 µM | > 10 µM | > 10 µM | > 10 µM | > 10 µM | 0 | 0 | 0 | 0 | 0 |
| OC(CN1CCN(c2cccc(Cl)c2)CC1)C(c1ccccc1)c1ccccc1 (stereo not given) | 93.3% | 101% | 101% | 94.4% | 105% | 102% | 110% | 98.6% | 99.9% | 104% | 103% | 102% | 92.4% | 108% | 102% | 95.2% | 97.9% | 98.2% | 95.8% | 92.8% | 95.5% | 96.9% | 88.9% | 99.7% | 104% | > 10 µM | > 10 µM | > 10 µM | > 10 µM | > 10 µM | 0 | 0 | 0 | 0 | 0 |
| Nc1nc(NC2CC2)cc(-c2cccc(Cl)c2Cl)n1 [TH-588] | 92.1% | 91.1% | 96.4% | 93.7% | 96.8% | 95.5% | 94% | 101% | 104% | 98.5% | 95.4% | 97.1% | 102% | 101% | 95.4% | 96.3% | 99.2% | 105% | 97.9% | 98.6% | 100% | 104% | 98.1% | 101% | 89.6% | > 10 µM | > 10 µM | > 10 µM | > 10 µM | > 10 µM | 0 | 0 | 0 | 0 | 0 |
| O=C1NC(=O)C(c2ccccc2[N+](=O)[O-])=C1Nc1ccc(O)c(Cl)c1 | 98.1% | 94.3% | 104% | 95.7% | 107% | 91.4% | 91.9% | 94.4% | 85.9% | 88.9% | 102% | 97.1% | 95.5% | 104% | 100% | 93.5% | 94.9% | 101% | 103% | 104% | 101% | 103% | 98.8% | 105% | 105% | > 10 µM | > 10 µM | > 10 µM | > 10 µM | > 10 µM | 0 | 0 | 0 | 0 | 0 |
| CN1CCC(=C2c3ccccc3CCc3sccc32)CC1 [pizotifen] | 97.6% | 104% | 101% | 107% | 99.2% | 96% | 88.7% | 102% | 91.3% | 98.2% | 96.2% | 101% | 99.1% | 109% | 101% | 94.6% | 95.6% | 101% | 94.4% | 94.6% | 98.3% | 98.6% | 97.9% | 100% | 103% | > 10 µM | > 10 µM | > 10 µM | > 10 µM | > 10 µM | 0 | 0 | 0 | 0 | 0 |
| CCCN(CCC)[C@H]1CCc2ccc(O)cc2C1 [7-hydroxy-DPAT] | 96.5% | 95.4% | 106% | 100% | 96.4% | 92.7% | 89.7% | 98.7% | 102% | 96% | 112% | 106% | 92.8% | 99.9% | 99.5% | 101% | 97.1% | 101% | 104% | 103% | 101% | 105% | 101% | 104% | 99.4% | > 10 µM | > 10 µM | > 10 µM | > 10 µM | > 10 µM | 0 | 0 | 0 | 0 | 0 |
| CCCC[C@@]1(C2CCCC2)Cc2cc(OCCCC(=O)O)c(Cl)c(Cl)c2C1=O [DCPIB] | 105% | 108% | 103% | 88.3% | 85.8% | 87% | 96.4% | 106% | 89.1% | 118% | 109% | 98.1% | 99.1% | 92.5% | 94.8% | 95.7% | 90.4% | 97.4% | 93.9% | 94.5% | 109% | 109% | 99.7% | 100% | 101% | > 10 µM | > 10 µM | > 10 µM | > 10 µM | > 10 µM | 0.9 | 0 | 0 | 0 | 0 |
| O=C(Oc1cccc2cccnc12)c1ccccc1 [benzoxiquine] | 102% | 99.6% | 102% | 99.2% | 98.1% | 106% | 94.3% | 95.6% | 96% | 93.7% | 104% | 103% | 102% | 102% | 7% | 99.7% | 92.3% | 96.3% | 92.4% | 98.6% | 98.5% | 101% | 99.5% | 98.3% | 93.8% | > 10 µM | > 10 µM | 3.26 µM | > 10 µM | > 10 µM | 0 | 0 | 5.1 | 0 | 0 |
| C[N+]1(C)CCCC(OC(=O)C(O)(c2ccccc2)c2ccccc2)C1 (stereo not given) [mepenzolate] | 91.3% | 87.1% | 96.6% | 101% | 101% | 105% | 103% | 96.1% | 110% | 94.5% | 107% | 98.1% | 104% | 91.9% | 94.3% | 99.7% | 101% | 96.6% | 101% | 96.9% | 94.9% | 105% | 97.5% | 99.6% | 99.8% | > 10 µM | > 10 µM | > 10 µM | > 10 µM | > 10 µM | 0 | 0 | 0 | 0 | 0 |
| CN1C(=O)c2c(nn(Cc3ccc(-c4cccc(F)n4)cc3)c2Nc2ccccc2)N2C1=N[C@@H]1CCC[C@@H]12 [ITI214] | 87.3% | 104% | 97.4% | 94.8% | 117% | 105% | 87% | 100% | 101% | 92.8% | 105% | 96.7% | 97.9% | 102% | 79.7% | 106% | 102% | 102% | 96.7% | 89.3% | 110% | 113% | 99.6% | 104% | 97.2% | > 10 µM | > 10 µM | > 10 µM | > 10 µM | > 10 µM | 0 | 0 | 0.5 | 0 | 0 |
| C=CCN1C[C@H](C)N([C@H](c2ccc(C(=O)N(CC)CC)cc2)c2cccc(O)c2)C[C@H]1C [BW-373U86] | 101% | 102% | 96.1% | 96.7% | 95.2% | 92.9% | 103% | 107% | 102% | 101% | 95.5% | 93.7% | 101% | 86.9% | 96.3% | 100% | 102% | 96% | 104% | 97.8% | 105% | 100% | 105% | 94.9% | 104% | > 10 µM | > 10 µM | > 10 µM | > 10 µM | > 10 µM | 0 | 0 | 0 | 0 | 0 |
| N#Cc1ccc2[nH]c(O)c(-c3ccc(CN4CCOCC4)cn3)c2c1 [AZD1080] | 96.3% | 100% | 106% | 113% | 84.6% | 105% | 107% | 100% | 112% | 91.2% | 107% | 99.3% | 102% | 112% | 82.7% | 95.3% | 105% | 95.8% | 105% | 99.5% | 99.1% | 97.6% | 98.2% | 108% | 82% | > 10 µM | > 10 µM | > 10 µM | > 10 µM | > 10 µM | 0.1 | 0 | 0.2 | 0 | 0.2 |
| CCC[C@@H]1C[C@@H](C(=O)N[C@@H]([C@H]2O[C@H](SC)[C@H](O)[C@@H](O)[C@H]2O)[C@H](C)Cl)N(C)C1 [CLINDAMYCIN HYDROCHLORIDE] | 95.6% | 95.7% | 95.3% | 108% | 108% | 100% | 96.7% | 98.9% | 102% | 102% | 103% | 93% | 104% | 100% | 97.6% | 97.6% | 102% | 99.2% | 105% | 103% | 95.3% | 89.8% | 93.8% | 91.2% | 104% | > 10 µM | > 10 µM | > 10 µM | > 10 µM | > 10 µM | 0 | 0 | 0 | 0 | 0 |
| Cc1cnc(Nc2ccc(OCCN3CCCC3)cc2)nc1Nc1cccc(S(=O)(=O)NC(C)(C)C)c1 [fedratinib] | 101% | 97.1% | 99.3% | 79.6% | 11.9% | 107% | 102% | 100% | 98.5% | 18.3% | 120% | 100% | 101% | 74.2% | 22.2% | 104% | 97.4% | 99.2% | 86.2% | 0.8% | 96% | 104% | 104% | 94.2% | 0.3% | 1.61 µM | 3.04 µM | 1.32 µM | 2.05 µM | 2.71 µM | 8.1 | 4.7 | 8 | 7.8 | 6.4 |
